Source: patent US10730863B2, “Bridged bicyclic compounds as farnesoid X receptor modulators” (BRISTOL-MYERS SQUIBB COMPANY, priority 2017, dated 2020)

Target: FXR (Homo sapiens (Human), UniProt Q96RI1)
Assay: FXR EC50 (FXR agonist activity reported with each example)
Assay type: cell-based

FXR, sequence (Q96RI1 262-486): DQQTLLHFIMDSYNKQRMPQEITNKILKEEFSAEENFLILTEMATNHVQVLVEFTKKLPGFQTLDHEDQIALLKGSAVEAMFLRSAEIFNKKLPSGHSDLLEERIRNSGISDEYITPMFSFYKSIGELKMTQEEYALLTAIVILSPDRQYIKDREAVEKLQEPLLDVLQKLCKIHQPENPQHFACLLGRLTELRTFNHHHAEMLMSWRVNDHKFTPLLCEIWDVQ

Molecule | EC50 [µM]
O=C(O)c1cc(F)cc(-c2noc(C34CCC(/C=C/c5c(-c6c(Cl)cncc6Cl)noc5C5CC5)(CC3)CC4)n2)c1 [Example 442, (E)-3-(5-(4-(2-(5-cyclopropyl-3-(3,5-dichloropyridin-4-yl)isoxazol-4-yl)vinyl)bicyclo[2.2.2]octan-1-yl)-1,2,4-oxadiazol-3-yl)-5-fluorobenzoic acid] | 0.079
Cc1cc(C(=O)O)ncc1C#CC12CCC(OCc3c(-c4c(Cl)cncc4Cl)noc3C3CC3)(CC1)CC2 [Example 387] | 0.057
3-((4-((5-cyclopropyl-3-(2- trifluoromethoxy)phenyl)isoxazol-4- yl)methoxy)bicyclo[2.2.2]octan-1- yl)methoxy)nicotinic acid [Example 78] | 1.4
O=C(O)c1ccc(OCC23CCC(OCc4c(-c5c(Cl)cncc5Cl)noc4C4CC4)(CC2)CC3)nc1 [Example 114, 6-((4-((5-cyclopropyl-3-(3,5-dichloropyridin-4-yl)isoxazol-4-yl)methoxy)bicyclo[2.2.2]octan-1-yl)methoxy)nicotinic acid] | 0.14
O=C(O)c1cc(OC2COC2)c2cc(OCC34CCC(OCc5c(-c6c(Cl)cncc6Cl)noc5C5CC5)(CC3)CC4)ccc2n1 [Example 361] | 0.071
O=C(O)c1ccc(C23CCC(COCc4c(-c5c(Cl)cccc5Cl)noc4C4CC4)(CC2)CO3)cc1 [Example 201] | 0.27
CCOc1cc(C(=O)O)nc2cc(F)c(OCC34CCC(OCc5c(-c6c(Cl)cncc6Cl)noc5C5CC5)(CC3)CC4)cc12 [Example 313, 6-((4-((5-cyclopropyl-3-(3,5-dichloropyridin-4-yl)isoxazol-4-yl)methoxy)bicyclo[2.2.2]octan-1-yl)methoxy)-4-ethoxy-7-fluoroquinoline-2-carboxylic acid] | 0.048
O=C(O)c1ccc2c(C(O)C34CCC(OCc5c(-c6c(Cl)cccc6Cl)noc5C5CC5)(CC3)CC4)ccnc2c1 (stereo not drawn) [Example 128, 4-((4-((5-cyclopropyl-3-(2,6-dichlorophenyl)isoxazol-4-yl)methoxy)bicyclo[2.2.2]octan-1-yl)(hydroxy)methyl)quinoline-7-carboxylic acid] | 0.7
O=C(O)c1csc(OCC23CCC(COCc4c(-c5c(Cl)cccc5Cl)noc4C4CC4)(CC2)CC3)n1 [Example 176, 2-((4-(((5-cyclopropyl-3-(2,6-dichlorophenyl)isoxazol-4-yl)methoxy)methyl)bicyclo[2.2.2]octan-1-yl)methoxy)thiazole-4-carboxylic acid] | 0.74
O=C(O)C1CC1c1noc(C23CCC(OCc4c(-c5c(Cl)cccc5Cl)noc4C4CC4)(CC2)CC3)n1 (stereo not drawn) [Example 266, 2-(5-(4-((5-cyclopropyl-3-(2,6-dichlorophenyl)isoxazol-4-yl)methoxy)bicyclo[2.2.2]octan-1-yl)-1,2,4-oxadiazol-3-yl)cyclopropane-1-carboxylic acid] | 0.72
COC(=O)c1cc(OC(F)F)cc(-c2noc(C34CCC(/C=C/c5c(-c6c(Cl)cncc6Cl)noc5C5CC5)(CC3)CC4)n2)c1 [Example 443, (E)-methyl 3-(5-(4-(2-(5-cyclopropyl-3-(3,5-dichloropyridin-4-yl)isoxazol-4-yl)vinyl)bicyclo[2.2.2]octan-1-yl)-1,2,4-oxadiazol-3-yl)-5-(difluoromethoxy)benzoate] | 0.049
O=C(O)c1cc(F)c2nc(C34CCC(OCc5c(-c6c(Cl)cncc6Cl)noc5C5CC5)(CC3)CC4)sc2c1 [Example 231, 2-(4-((5-cyclopropyl-3-(3,5-dichloropyridin-4-yl)isoxazol-4-yl)methoxy)bicyclo[2.2.2]octan-1-yl)-4-fluorobenzo[d]thiazole-6-carboxylic acid] | 0.053
O=C(O)c1ccc(OC2CCC2)c2nc(OCC34CCC(OCc5c(-c6c(Cl)cncc6Cl)noc5C5CC5)(CC3)CC4)ccc12 [Example 349, 8-cyclobutoxy-2-((4-((5-cyclopropyl-3-(3,5-dichloropyridin-4-yl)isoxazol-4-yl)methoxy)bicyclo[2.2.2]octan-1-yl)methoxy)quinoline-5-carboxylic acid] | 0.13
O=C(O)c1cc(OC(F)F)c2cc(OCC34CCC(/C=C/c5c(-c6c(Cl)cncc6Cl)noc5C5CC5)(CC3)CC4)ccc2n1 [Example 451, (E)-6-((4-(2-(5-cyclopropyl-3-(3,5-dichloropyridin-4-yl)isoxazol-4-yl)vinyl)bicyclo[2.2.2]octan-1-yl)methoxy)-4-(difluoromethoxy)quinoline-2-carboxylic acid] | 0.035
O=C(O)c1cc(C(F)(F)F)cc2nc(C34CCC(OCc5c(-c6c(Cl)cncc6Cl)noc5C5CC5)(CC3)CC4)ccc12 [Example 420] | 0.003
O=C(O)c1cncc(OCC23CCC(OCc4c(-c5c(Cl)cccc5Cl)noc4C4CC4)(CC2)CC3)n1 [Example 112, 6-((4-((5-cyclopropyl-3-(2,6-dichlorophenyl)isoxazol-4-yl)methoxy)bicyclo[2.2.2]octan-1-yl)methoxy)pyrazine-2-carboxylic acid] | 0.69
O=C(O)c1cccc(-c2nc(C34CCC(OCc5c(-c6ccccc6C(F)(F)F)noc5C5CC5)(CC3)CC4)no2)n1 [Example 23, 6-(3-(4-((5-cyclopropyl-3-(2-(trifluoromethyl)phenyl)isoxazol-4-yl)methoxy)bicyclo[2.2.2]octan-1-yl)-1,2,4-oxadiazol-5-yl)picolinic acid] | 2.8
O=C(O)Cc1ccccc1OCC12CCC(OCc3c(-c4c(Cl)cccc4Cl)noc3C3CC3)(CC1)CC2 [Example 116, 2-(2-((4-((5-cyclopropyl-3-(2,6-dichlorophenyl)isoxazol-4-yl)methoxy)bicyclo[2.2.2]octan-1-yl)methoxy)phenyl)acetic acid] | 0.9
O=C(O)c1ccc(-c2noc(C34CCC(OCc5c(-c6ccccc6OC(F)(F)F)noc5C5CC5)(CC3)CC4)n2)cn1 [Example 12, 5-(5-(4-((5-cyclopropyl-3-(2-(trifluoromethoxy)phenyl)isoxazol-4-yl)methoxy)bicyclo[2.2.2]octan-1-yl)-1,2,4-oxadiazol-3-yl)picolinic acid] | 1.2
O=C(O)c1cc(-c2noc(C34CCC(OCc5c(-c6c(Cl)cccc6Cl)noc5C5CC5)(CC3)CO4)n2)ccc1F [Example 198] | 0.098
O=C(O)c1cccc(C23CCC(COCc4c(-c5ccccc5OC(F)(F)F)noc4C4CC4)(CC2)CO3)c1 [Example 204] | 0.44
O=C(O)c1csc(OCC23CCC(OCc4c(-c5c(Cl)cncc5Cl)noc4C4CC4)(CC2)CC3)n1 [Example 465, 2-((4-((5-cyclopropyl-3-(3,5-dichloropyridin-4-yl)isoxazol-4-yl)methoxy)bicyclo[2.2.2]octan-1-yl)methoxy)thiazole-4-carboxylic acid] | 0.18
O=C(O)c1ccc(N2CCOCC2)c2nc(C34CCC(OCc5c(-c6c(Cl)cncc6Cl)noc5C5CC5)(CC3)CC4)ccc12 [Example 410, 2-(4-((5-cyclopropyl-3-(3,5-dichloropyridin-4-yl)isoxazol-4-yl)methoxy)bicyclo[2.2.2]octan-1-yl)-8-morpholinoquinoline-5-carboxylic acid] | 0.036
O=C(O)c1ccc(-c2noc(C34CCC(COCc5c(-c6c(Cl)cccc6Cl)noc5C5CC5)(CC3)CC4)n2)cc1 [Example 152] | 0.14
